Consider two compounds from article PMC2873968, “Novel protein kinase D inhibitors cause potent arrest in prostate cancer cell growth and motility” (BMC Chemical Biology, 2010).

The target in one experiment is T1, PKCα (Homo sapiens, UniProt P17252).
T1 construct: purchased Cell Signaling Technology and Calbiochem
On the set-up: method as in PMID 18829454. Particulars: previously reported; cited from earlier work.

The subject of another experiment is PLK1. Also noted: method as in PMID 18829454. Particulars: previously reported; cited from earlier work.
For a further experiment, the target named is AKT1 (Homo sapiens, UniProt P31749). The experiment is described as follows: Kinase profiling, single-dose in vitro kinase assay (Caliper Life Sciences). The conditions noted are these: read-out: Average % Inhibition AKT1.
The next experiment addresses CAMK4 (Homo sapiens, UniProt Q16566). The description is as above. The conditions noted are these: read-out: Average % Inhibition CAMK4.
A further experiment deals with FGFR1 (Homo sapiens, UniProt P11362). The experiment is described as above. The conditions noted are these: read-out: Average % Inhibition FGFR1.
The target in the next experiment is PAK2 (Homo sapiens, UniProt Q13177). Described as above. Particulars: read-out: Average % Inhibition PAK2.
In a further experiment the target is PKCθ (Homo sapiens, UniProt Q04759). The experiment is described as above. Particulars: read-out: Average % Inhibition PKCθ.
A further experiment addresses PKCζ (Homo sapiens, UniProt Q05513). The description is as above. The conditions noted are these: read-out: Average % Inhibition PKCζ.
A further experiment deals with RSK1 (Homo sapiens, UniProt Q15418). Described as above. The conditions noted are these: read-out: Average % Inhibition RSK1.
For the next experiment, the system named is PC3 cells. Kind of experiment: Cell proliferation assay (cell counts, trypan blue). It is filed as cell-based. The conditions noted are these: 10 μM, cell counts over six days. From the text: Cells were allowed to attach overnight.

Chain of AKT1 (P31749 whole entry): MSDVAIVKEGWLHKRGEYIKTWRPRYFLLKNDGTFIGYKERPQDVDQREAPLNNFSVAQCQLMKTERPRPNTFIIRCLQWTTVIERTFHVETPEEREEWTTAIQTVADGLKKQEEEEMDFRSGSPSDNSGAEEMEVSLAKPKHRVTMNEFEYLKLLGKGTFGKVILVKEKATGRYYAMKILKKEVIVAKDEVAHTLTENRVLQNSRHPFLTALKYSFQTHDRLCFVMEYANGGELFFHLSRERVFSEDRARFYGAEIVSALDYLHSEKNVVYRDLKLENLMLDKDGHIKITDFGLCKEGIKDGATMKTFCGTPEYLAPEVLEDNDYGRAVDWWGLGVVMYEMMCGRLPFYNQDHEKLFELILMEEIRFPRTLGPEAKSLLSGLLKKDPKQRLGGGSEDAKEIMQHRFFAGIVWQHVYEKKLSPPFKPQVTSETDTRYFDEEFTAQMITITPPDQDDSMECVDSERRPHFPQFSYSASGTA
Chain of PAK2 (Q13177 whole entry): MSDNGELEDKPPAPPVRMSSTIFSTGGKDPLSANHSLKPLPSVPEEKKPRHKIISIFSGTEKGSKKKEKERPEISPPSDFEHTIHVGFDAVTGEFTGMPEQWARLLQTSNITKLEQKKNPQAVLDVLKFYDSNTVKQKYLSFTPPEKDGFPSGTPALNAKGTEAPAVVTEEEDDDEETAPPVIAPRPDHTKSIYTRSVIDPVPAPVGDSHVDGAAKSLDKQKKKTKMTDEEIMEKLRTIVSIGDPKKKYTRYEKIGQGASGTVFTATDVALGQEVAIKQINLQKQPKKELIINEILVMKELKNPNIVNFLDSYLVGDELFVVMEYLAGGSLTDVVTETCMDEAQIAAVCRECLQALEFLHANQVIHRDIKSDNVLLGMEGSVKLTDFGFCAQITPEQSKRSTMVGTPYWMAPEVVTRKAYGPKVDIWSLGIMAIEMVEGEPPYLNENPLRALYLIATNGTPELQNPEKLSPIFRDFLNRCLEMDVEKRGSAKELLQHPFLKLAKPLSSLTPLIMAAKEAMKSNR
Chain of PKCζ (Q05513 whole entry): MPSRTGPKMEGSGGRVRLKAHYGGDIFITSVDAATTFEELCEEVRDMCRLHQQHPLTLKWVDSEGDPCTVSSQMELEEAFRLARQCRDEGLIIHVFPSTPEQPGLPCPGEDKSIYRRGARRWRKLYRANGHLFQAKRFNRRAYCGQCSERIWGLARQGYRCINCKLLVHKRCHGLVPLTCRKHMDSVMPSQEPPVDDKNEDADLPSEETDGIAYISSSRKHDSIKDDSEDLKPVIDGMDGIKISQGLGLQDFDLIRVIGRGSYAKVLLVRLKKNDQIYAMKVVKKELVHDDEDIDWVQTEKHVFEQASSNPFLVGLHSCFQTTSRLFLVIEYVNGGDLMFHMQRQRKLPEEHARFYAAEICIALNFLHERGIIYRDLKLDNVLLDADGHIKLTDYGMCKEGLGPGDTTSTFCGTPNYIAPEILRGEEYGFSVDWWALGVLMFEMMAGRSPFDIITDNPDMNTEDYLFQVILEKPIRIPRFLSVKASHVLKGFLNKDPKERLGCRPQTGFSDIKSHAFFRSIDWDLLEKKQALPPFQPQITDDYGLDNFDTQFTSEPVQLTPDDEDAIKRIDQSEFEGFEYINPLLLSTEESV
Chain of PKCθ (Q04759 whole entry): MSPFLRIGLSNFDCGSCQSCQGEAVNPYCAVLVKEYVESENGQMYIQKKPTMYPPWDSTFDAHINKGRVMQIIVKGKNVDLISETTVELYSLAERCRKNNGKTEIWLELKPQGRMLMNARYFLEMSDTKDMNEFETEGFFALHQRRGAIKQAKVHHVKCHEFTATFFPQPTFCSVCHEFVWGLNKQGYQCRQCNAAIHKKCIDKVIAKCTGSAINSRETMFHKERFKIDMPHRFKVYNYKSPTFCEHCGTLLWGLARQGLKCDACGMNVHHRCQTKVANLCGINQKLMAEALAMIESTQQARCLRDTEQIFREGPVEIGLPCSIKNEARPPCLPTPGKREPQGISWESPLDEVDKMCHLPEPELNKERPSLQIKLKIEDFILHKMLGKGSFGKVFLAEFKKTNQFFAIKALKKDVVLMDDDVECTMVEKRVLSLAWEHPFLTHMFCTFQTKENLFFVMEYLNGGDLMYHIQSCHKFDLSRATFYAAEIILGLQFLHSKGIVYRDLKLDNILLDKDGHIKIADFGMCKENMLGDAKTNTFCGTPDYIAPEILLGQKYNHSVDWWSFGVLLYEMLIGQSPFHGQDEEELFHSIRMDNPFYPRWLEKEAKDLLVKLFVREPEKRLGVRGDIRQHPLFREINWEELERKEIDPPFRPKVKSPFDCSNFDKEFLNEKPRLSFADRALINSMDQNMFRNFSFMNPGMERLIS
Chain of FGFR1 (P11362 22-822): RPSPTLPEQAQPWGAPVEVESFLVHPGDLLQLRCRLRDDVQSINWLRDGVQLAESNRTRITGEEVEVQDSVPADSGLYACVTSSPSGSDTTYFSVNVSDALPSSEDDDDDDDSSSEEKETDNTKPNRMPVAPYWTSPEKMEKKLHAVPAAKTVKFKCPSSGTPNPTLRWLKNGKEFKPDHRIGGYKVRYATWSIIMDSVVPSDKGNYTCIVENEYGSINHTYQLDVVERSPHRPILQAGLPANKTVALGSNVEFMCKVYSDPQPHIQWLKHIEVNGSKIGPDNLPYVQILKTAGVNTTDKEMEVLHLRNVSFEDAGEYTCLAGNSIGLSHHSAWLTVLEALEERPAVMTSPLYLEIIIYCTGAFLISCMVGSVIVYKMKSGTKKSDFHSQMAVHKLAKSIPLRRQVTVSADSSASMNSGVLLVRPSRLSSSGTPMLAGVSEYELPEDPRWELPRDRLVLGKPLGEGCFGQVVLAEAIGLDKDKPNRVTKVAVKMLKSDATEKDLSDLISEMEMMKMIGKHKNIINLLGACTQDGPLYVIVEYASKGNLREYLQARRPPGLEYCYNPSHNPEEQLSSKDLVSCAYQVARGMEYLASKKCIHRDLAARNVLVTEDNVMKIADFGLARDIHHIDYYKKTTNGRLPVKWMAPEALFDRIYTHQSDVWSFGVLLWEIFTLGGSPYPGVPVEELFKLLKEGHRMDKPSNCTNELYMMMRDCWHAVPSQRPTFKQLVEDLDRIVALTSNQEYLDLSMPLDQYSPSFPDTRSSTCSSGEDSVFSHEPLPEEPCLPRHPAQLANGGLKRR
Chain of RSK1 (Q15418 whole entry): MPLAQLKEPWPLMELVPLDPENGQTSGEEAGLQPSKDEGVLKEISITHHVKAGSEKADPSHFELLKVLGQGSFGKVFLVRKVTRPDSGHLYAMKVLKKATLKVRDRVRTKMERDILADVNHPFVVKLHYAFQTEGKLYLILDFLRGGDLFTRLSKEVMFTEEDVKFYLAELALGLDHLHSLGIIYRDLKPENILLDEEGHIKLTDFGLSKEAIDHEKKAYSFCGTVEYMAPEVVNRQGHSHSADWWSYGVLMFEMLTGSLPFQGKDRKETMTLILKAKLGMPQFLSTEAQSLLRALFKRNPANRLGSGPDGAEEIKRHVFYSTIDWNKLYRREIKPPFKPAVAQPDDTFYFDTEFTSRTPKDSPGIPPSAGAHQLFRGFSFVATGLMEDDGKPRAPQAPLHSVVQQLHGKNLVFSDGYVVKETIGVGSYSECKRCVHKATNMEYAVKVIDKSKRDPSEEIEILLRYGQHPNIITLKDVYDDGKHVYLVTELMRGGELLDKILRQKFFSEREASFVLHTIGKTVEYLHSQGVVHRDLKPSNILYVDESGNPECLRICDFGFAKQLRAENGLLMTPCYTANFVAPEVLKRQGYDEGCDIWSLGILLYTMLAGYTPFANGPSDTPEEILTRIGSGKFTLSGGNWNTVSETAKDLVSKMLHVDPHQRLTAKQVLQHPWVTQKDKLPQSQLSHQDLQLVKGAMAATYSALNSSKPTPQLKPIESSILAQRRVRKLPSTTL
Chain of CAMK4 (Q16566 whole entry): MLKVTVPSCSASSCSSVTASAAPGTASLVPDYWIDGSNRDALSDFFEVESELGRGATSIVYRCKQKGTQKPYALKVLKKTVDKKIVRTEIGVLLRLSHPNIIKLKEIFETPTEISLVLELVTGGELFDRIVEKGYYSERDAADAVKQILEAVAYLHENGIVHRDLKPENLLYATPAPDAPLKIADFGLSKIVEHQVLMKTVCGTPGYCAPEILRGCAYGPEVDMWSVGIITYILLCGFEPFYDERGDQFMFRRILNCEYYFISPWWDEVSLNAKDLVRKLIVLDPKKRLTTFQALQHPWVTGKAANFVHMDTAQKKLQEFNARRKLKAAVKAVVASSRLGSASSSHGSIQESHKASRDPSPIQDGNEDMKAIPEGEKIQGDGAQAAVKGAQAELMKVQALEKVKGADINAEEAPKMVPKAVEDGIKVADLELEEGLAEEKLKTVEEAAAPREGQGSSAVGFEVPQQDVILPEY

Turning to `O=C1NCCCc2c1oc1ccc(O)cc21` [CID755673, 7-Hydroxy-2,3,4,5-tetrahydro-[1]benzoxolo[2,3-c]azepin-1-one], at PKCα, the “inhibition of PKCα” value is listed as “did not inhibit”. Further, the “inhibition of PLK1” value in the experiment with PLK1 is “did not inhibit”. Besides, the inhibition – broadly, the change of the read-out against control, counted positive when it falls – at 10 µM on AKT1 is 3%; on CAMK4, 17%; at FGFR1 it was 16%; at PAK2, 3%; on PKCθ, 32%; on PKCζ, -4%. Also, the inhibition at 10 µM at RSK1 was determined as 29%.

On to `O=C1NCCSc2c1sc1ccc(O)cc21` [kb-NB142-70], for which the “effect on cell proliferation” value in the experiment on PC3 cells is given as “most potent among the compounds”.
